Results as given in patent US20240110004A1 (Northwestern University, priority 2022, published 2024).
Where no end group is shown, it is not given here.

Tested on: R6/2 mice
Assay: Western blot of DARPP-32, PSD95 and BDNF in striatal lysates
Format: in vivo, mouse
Source text: FIG. 32A-32C: Histograms of Quantified Western Blot Results for Protein Levels (blots not shown). Actin was used as the loading control in the Western Blot, results are therefore depicted as ratios of the protein of interest signal relative to the actin signal in each sample. FIG. 32A depicts DARPP-32 levels in striatal lysates. p-value for: WT veh as compared to R62 veh: <0.0001; WT+P1 as compared to R62 veh: <0.0001; R62 veh as compared to R62+HV3-TAT: 0.0493; R62 veh as compared to R62+P1: 0.0027; R62+P1 as compared to R62+HV3-TAT: 0.7733. FIG. 32B depicts PSD95 levels in striatal lysates. p-value for: WT veh as compared to R62 veh: 0.0034; WT+P1 as compared to R62 veh: <0.0001; R62 veh as compared to R62+HV3-TAT: 0.0191; R62 veh as compared to R62+P1: <0.0001; R62+P1 as compared to R62+HV3-TAT: 0.1442. FIG. 32C depicts BDNF levels in striatal lysates. p-value for: WT veh as compared to R62 veh: <0.0001; WT+P1 as compared to R62 veh: <0.0001; R62 veh as compared to R62+HV3-TAT: 0.0120; R62 veh as compared to R62+P1: <0.0001; R62+P1 as compared to R62+HV3-TAT: 0.0257.
In vivo Efficacy Methods—Levels of Proteins of Interest: To further assess the efficacy of P1 in modulating HD neuropathology, the levels of cAMP-regulated phosphoprotein 32 kDa (DARPP-32), post-synaptic density protein (PSD95), and brain derived neurotrophic factor (BDNF) were determined in medium spiny neurons, each of which are decreased in the striatum of HD patients and R6/2 mouse models. Striatal lysates were generated from frozen striatal tissue from un-perfused sacrificed mice. Using a plate reader, protein concentrations were determined by protein assay dye (Bio-Rad). Protein stocks in lysis buffer were mixed with Laemmli buffer, loaded on SDS-PAGE, and transferred onto nitrocellulose membranes (Invitrogen). Membranes were probed with the primary antibodies for actin, DARPP-32, PSD95, and BDNF, and respective IgG-HRP secondary antibodies, followed by visualization of HRP with a blot scanner.

## P1: PLP homopolymer having peptide side chains of SEQ ID: 1 (HVLVMSATRR), made by ROMP of norbornene peptide monomer M1 (also: side chains of polynorbornene homopolymer (PLP, ROMP of norbornene peptide monomer))
Compared to the saline control
  BDNF protein levels in striatal lysates: Significant increases
  PSD95 protein levels in striatal lysates: Significant increases
Over saline control
  DARPP-32 levels in striatal lysates (immunoblotting): significantly increased DARPP-32 levels
